Measured values as given in US11192907B2, “Aminopeptidase A inhibitors and pharmaceutical compositions comprising the same” (QUANTUM GENOMICS, priority 2018, dated 2021).

Experiments:
recombinant mouse APA = target: T1, recombinant mouse APA (Mus musculus, UniProt P16406); experiment: Measurement of APA activity in vitro (GluβNa hydrolysis, microplate); assay type: biochemical; conditions: 200 μM Glu-βNa, pH 7.4, 37° C., read-out: In vitro inhibition of aminopeptidase A, IC50 classification
T1 sequence (P16406 1-945): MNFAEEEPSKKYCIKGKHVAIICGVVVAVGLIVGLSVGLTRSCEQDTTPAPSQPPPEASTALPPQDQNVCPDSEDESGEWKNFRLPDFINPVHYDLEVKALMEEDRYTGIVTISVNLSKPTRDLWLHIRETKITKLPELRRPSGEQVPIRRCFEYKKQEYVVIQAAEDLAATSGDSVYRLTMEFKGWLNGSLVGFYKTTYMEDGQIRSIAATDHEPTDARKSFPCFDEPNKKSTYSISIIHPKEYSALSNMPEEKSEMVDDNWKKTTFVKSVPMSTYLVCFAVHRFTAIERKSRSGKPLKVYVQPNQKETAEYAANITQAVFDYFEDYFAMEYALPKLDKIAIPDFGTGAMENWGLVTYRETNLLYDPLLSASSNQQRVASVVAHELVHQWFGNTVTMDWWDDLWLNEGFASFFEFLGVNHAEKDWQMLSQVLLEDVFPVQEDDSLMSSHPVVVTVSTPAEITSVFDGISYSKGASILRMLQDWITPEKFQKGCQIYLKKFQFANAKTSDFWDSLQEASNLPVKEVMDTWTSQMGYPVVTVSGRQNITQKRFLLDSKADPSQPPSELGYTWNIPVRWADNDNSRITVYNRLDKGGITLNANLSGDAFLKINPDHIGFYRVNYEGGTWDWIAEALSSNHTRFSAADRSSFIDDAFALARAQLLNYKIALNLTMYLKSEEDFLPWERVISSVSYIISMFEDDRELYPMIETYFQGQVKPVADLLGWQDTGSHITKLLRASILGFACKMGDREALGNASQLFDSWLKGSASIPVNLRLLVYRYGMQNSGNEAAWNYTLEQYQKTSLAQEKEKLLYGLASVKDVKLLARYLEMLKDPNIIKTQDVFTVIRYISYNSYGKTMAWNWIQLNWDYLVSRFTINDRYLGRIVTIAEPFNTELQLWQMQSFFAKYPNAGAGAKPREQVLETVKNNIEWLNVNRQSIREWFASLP
Description: In vitro, in the presence of calcium ions, APA hydrolyses a synthetic substrate α-L-glutamyl-β-naphthylamide (GluβNa) to glutamate and β-naphthylamine (βNa). A diazotation reaction in acidic medium makes it possible to reveal the β-naphthylamine by formation of a violet-coloured complex: spectrophotometric measurement then makes it possible to know the amount of complex formed and, by reference to a standard curve produced with increasing concentrations of β-naphthylamine, to deduce the enzymatic activity of the sample.
The reaction takes place at pH 7.4 in 50 mM tris-HCl buffer, in the presence of calcium (4 mM CaCl2)); recombinant mouse APA is incubated at 37° C. in the presence of the substrate (200 μM Glu-βNa) and in the presence or absence of various concentrations of the inhibitor to be tested, in a final volume of 100 μL. The reaction is stopped by adding 10 μL of 3N HCl. A standard curve of β-naphthylamine was prepared in parallel by diazotizing increasing concentrations (up to 0.2 mM) of 2-naphthylamine in 0.1 N HCl.
The following are added to each well: 25 μL of sodium nitrite (NaNO2) (mix, wait 5 minutes at room temperature), 50 μL of ammonium sulfamate (mix, wait 5 minutes at room temperature), then add 25 μL of N-(1-naphthyl) ethylenediamine dihydrochloride (mix, wait for stabilization of the violet colour for approximately 30 minutes at 37° C.).
The absorbance is then measured at 540 nm.

brain APA [1] = conditions: central infusions, cited from earlier work
[2] = acute oral, 15 to 150 mg/kg, conscious hypertensive DOCA-salt rats and SHR rats; cited from earlier work
brain APA [3] = target: T2, brain APA (Mus musculus, UniProt P16406); experiment: Measurement of brain APA activity ex vivo after i.v. administration; assay type: in vivo, mice; conditions: for brain APA activity: 10 min
T2 construct: from tissue; host or cells: mouse brain homogenate
T2 sequence (P16406 1-945): T1 sequence (P16406 1-945)
Protocol: Brain APA activity was determined as described above.
In vivo, in mice (male, 18-20 g Charles River), Examples 22 and 52 were administered i.v. (5 mg/kg and 4 mg/kg respectively, in a volume of 200 μL). For each condition, five mice were used. Mice were sacrified 10, 30, 60, 120 and 180 min after the injection. The brains were immediately removed and homogenized by sonication in 10 vol of ice-cold 50 mM Tris-HCl buffer (pH 7.4). APA enzymatic activity was measured on brain homogenates. For this purpose, aliquots of the tissue homogenate (16 μL) were incubated for 30 min at 37° C. with 200 μM of GluβNA, 4 mM CaCl2, and 1 μM bestatin inhibitor, with or without 5 μM EC33, in a total volume of 100 μL of 50 mM Tris-HCl buffer (pH 7.4). Then the assay was pursued as described above.

| IC50 (recombinant mouse APA) [nM] | Structure (SMILES) | further results |
| --- | --- | --- |
| < 30 | COc1cccc(CP(=O)(O)C(N)CCC(=O)O)c1 (stereo not shown) [Example 11, 4-amino-4-{hydroxy[(3-methoxyphenyl)methyl]phosphoryl}butanoic acid] |  |
|  | N[C@@H](CCS(=O)(=O)O)CSSC[C@@H](N)CCS(=O)(=O)O [RB150] | effect on BP [2]: dose-dependent decrease in BP |
| < 30 | COc1cccc(CCP(=O)(O)C(N)CCC(=O)O)c1 (stereo not shown) [Example 33, 4-amino-4-{hydroxy[2-(3-methoxyphenyl)ethyl]phosphoryl} butanoic acid] |  |
| 300 to 10000 | CC(C)(CP(=O)(O)C(N)CCC(=O)O)c1ccccc1 (stereo not shown) [Example 27, 4-amino-4-[hydroxy(2-methyl-2-phenylpropyl)phosphoryl]butanoic acid] |  |
| 300 to 10000 | NC(CCC(=O)O)P(=O)(O)CCn1ncc2ccccc21 (stereo not shown) [Example 47, 4-amino-4-{hydroxy[2-(1H-indazol-1-yl)ethyl]phosphoryl}butanoic acid] |  |
| < 30 | NC(CCC(=O)O)P(=O)(O)CCc1ccccc1OC(F)(F)F (stereo not shown) [Example 38, 4-amino-4-[hydroxy({2-[2-(trifluoromethoxy)phenyl]ethyl})phosphoryl]butanoic acid] |  |
| < 30 | NC(CCC(=O)O)P(=O)(O)CCc1ccccc1OCc1ccccc1 (stereo not shown) [Example 48, 1-({2-[2-(benzyloxy)phenyl]ethyl}(hydroxy)phosphoryl)-3-carboxy propan-1-aminium chloride] |  |
| 30 to 300 | NC(CCC(=O)O)P(=O)(O)Cc1cccc(-c2ccccc2)c1 (stereo not shown) [Example 19, 4-amino-4-[({[1,1′-biphenyl]-3-yl}methyl)(hydroxy)phosphoryl]butanoic acid] |  |
| 30 to 300 | NC(CCC(=O)O)P(=O)(O)Cc1ccccc1Oc1ccccc1 (stereo not shown) [Example 16, 4-amino-4-{hydroxy[(2-phenoxyphenyl)methyl]phosphoryl}butanoic acid] |  |
| 30 to 300 | COc1ccccc1CP(=O)(O)C(N)CCS(=O)(=O)O (stereo not shown) [Example 60, 3-amino-3-{hydroxy[(2-methoxyphenyl)methyl]phosphoryl}propane-1-sulfonic acid] |  |
| < 30 | N[C@@H](CCC(=O)O)P(=O)(O)CCc1ccccc1OC1CCCCC1 [Example 53, (4R)-4-amino-4-({2-[2-(cyclohexyloxy)phenyl]ethyl} (hydroxy)phosphoryl) butanoic acid] |  |
| < 30 | Cc1cccc(CCP(=O)(O)C(N)CCC(=O)O)c1 (stereo not shown) [Example 24, 4-amino-4-{hydroxy[2-(3-methylphenyl)ethyl]phosphoryl}butanoic acid] |  |
| 300 to 10000 | NC(CCC(=O)O)P(=O)(O)Cc1cc(C(F)(F)F)cc(C(F)(F)F)c1 (stereo not shown) [Example 5, 4-amino-4-({[3,5-bis(trifluoromethyl)phenyl]methyl}(hydroxy)phosphoryl) butanoic acid] |  |
| < 30 | COc1cc(F)ccc1CCP(=O)(O)C(N)CCC(=O)O (stereo not shown) [Example 46, 4-amino-4-{[2-(4-fluoro-2-methoxyphenyl)ethyl](hydroxy)phosphoryl}butanoic acid] |  |
| 30 to 300 | Cc1cccc(CP(=O)(O)C(N)CCC(=O)O)c1 (stereo not shown) [Example 3, 4-amino-4-{hydroxy[(3-methylphenyl)methyl]phosphoryl}butanoic acid] |  |
| < 30 | NC(CCC(=O)O)P(=O)(O)CCc1ccc2ccccc2c1 (stereo not shown) [Example 30, 4-amino-4-{hydroxy[2-(naphthalen-2-yl)ethyl]phosphoryl}butanoic acid] |  |
| < 30 | COCCOc1ccccc1CCP(=O)(O)C(N)CCC(=O)O (stereo not shown) [Example 44, 3-carboxy-1-[hydroxy({2-[2-(2-methoxyethoxy)phenyl]ethyl})phosphoryl]propan-1-aminium chloride] |  |
| 30 to 300 | Cn1cc(CCP(=O)(O)C(N)CCC(=O)O)c2ccccc21 (stereo not shown) [Example 42, 3-carboxy-1-{hydroxy[2-(1-methyl-1H-indol-3-yl)ethyl]phosphoryl}propan-1-aminium chloride] |  |
| < 30 | NC(CCC(=O)O)P(=O)(O)CCc1ccccc1 (stereo not shown) [Example 22, 4-amino-4-[hydroxy(2-phenylethyl)phosphoryl]butanoic acid] | brain APA activity maximally decreased by (brain APA [3]; 5 mg/kg i.v., conscious mice, from 10 min until 60 min): 47%; brain APA activity (brain APA [3]; 5 mg/kg i.v., mice): 37.5±3.3 nmol of GluNA hydrolyzed per mg of protein per h; brain APA activity time course (brain APA [3]; 5 mg/kg i.v., mice, after 120 min): return to basal values; ability to cross the blood brain barrier and enter the brain (brain APA [3]; 5 mg/kg i.v., mice, by inhibition of brain APA activity): cross the blood brain barrier (BBB) and to enter the brain |
| 300 to 10000 | NC(CCS(=O)(=O)O)P(=O)(O)Cc1cccc(-c2ccccc2)c1 (stereo not shown) [Example 64, 3-amino-3-[({[1,1′-biphenyl]-3-yl}methyl)(hydroxy)phosphoryl]propane-1-sulfonic acid] |  |
| < 30 | Cc1ccccc1CCP(=O)(O)C(N)CCC(=O)O (stereo not shown) [Example 23, 4-amino-4-{hydroxy[2-(2-methylphenyl)ethyl]phosphoryl}butanoic acid] |  |
| 30 to 300 | COc1ccc(CP(=O)(O)C(N)CCC(=O)O)cc1 (stereo not shown) [Example 12, 4-amino-4-{hydroxy[(4-methoxyphenyl)methyl]phosphoryl}butanoic acid] |  |
| 30 to 300 | NC(CCC(=O)O)P(=O)(O)CCc1cccc(C(F)(F)F)c1 (stereo not shown) [Example 26, 4-amino-4-[hydroxy({2-[3-(trifluoromethyl)phenyl]ethyl})phosphoryl]butanoic acid] |  |
| < 30 | COc1ccc(CCP(=O)(O)C(N)CCC(=O)O)cc1 (stereo not shown) [Example 34, 4-amino-4-{hydroxy[2-(4-methoxyphenyl)ethyl]phosphoryl}butanoic acid] |  |
| 30 to 300 | NC(CCCS(=O)(=O)O)P(=O)(O)CCc1ccccc1 (stereo not shown) [Example 67, 4-amino-4-[hydroxy(2-phenylethyl)phosphoryl]butane-1-sulfonic acid] |  |
| 30 to 300 | Cc1ccc(CP(=O)(O)C(N)CCC(=O)O)cc1 (stereo not shown) [Example 4, 4-amino-4-{hydroxy[(4-methylphenyl)methyl]phosphoryl}butanoic acid] |  |

| Structure (SMILES) | IC50 (recombinant mouse APA) [nM] | further results |
| --- | --- | --- |
| N[C@H](CS)CCS(=O)(=O)O [EC33, (S)-3 amino-4-mercapto-butylsulfonic acid] | 300 to 10000 | effect on BP (brain APA [1]; several experimental models of hypertension): lower BP; effect on brain APA activity (brain APA [1]): inhibit brain APA activity |
| COc1ccccc1CCP(=O)(O)[C@@H](N)CCC(=O)O.Cl [Example 52, (1R)-3-carboxy-1-{hydroxy[2-(2-methoxyphenyl)ethyl]phosphoryl} propan-1-aminium chloride] | < 30 | brain APA activity (brain APA [3]; 4 mg/kg i.v., mice): 12.0±4.0 nmol of GluNA hydrolyzed per mg of protein per h; ability to cross the BBB and enter the brain (brain APA [3]; 4 mg/kg i.v., mice, by inhibition of brain APA activity): cross the BBB and to enter the brain; inhibition at 4 mg/kg (brain APA [3]; mouse, iv, 4 mg/kg i.v., mice, 120 min after the injection, read-out: brain APA activity inhibited by): 35% |
